{"source": "patent EP3634580B1", "about": "“COMPOSITIONS COMPRISING LACTULOSE FOR MAINTAINING OR IMPROVING GUT HEALTH IN HUMANS” (Fresenius Kabi Austria GmbH, priority 2017, dated 2018)", "test_system": "colon microbiota of human origin", "assay": "TIM-2 in vitro model of the proximal colon: ammonia production", "format": "cell-based", "conditions": "for ammonia production (in words): daily doses of 2 g, 3 g, 4 g, 5 g, 120 h test period, versus control; for Cumulative ammonia production: mean of n = 2", "description": "Crystalline lactulose was administered daily for 5 days to the TNO Intestinal Model (TIM-2), an in vitro model of the proximal colon. NaOH consumption, short-chain fatty acids (SCFA) production, ammonia production as well as relative abundance of microbiota were analyzed.\nThe substance administered in this study was lactulose crystals (S.C.M. Società Chimica Mugello S.r.l., Vicchio, Italy). Experiments without the addition of lactulose served as negative control.\nThe TNO Intestinal Model (TIM-2) is a dynamic in vitro model of the proximal colon. The TIM-2 system was inoculated with a highly metabolically active colon microbiota of human origin. In the system the following standardized conditions were simulated: body temperature; pH in the lumen of the proximal colon (pH 5.8); delivery of a substrate from the 'ileum' (SIEM; Standardized Ileum Efflux Medium); mixing and transport of the intestinal contents; anaerobiosis; absorption of water and absorption of fermentation products, metabolites and other low molecular weight compounds (via a semipermeable membrane inside the colon model).\nSIEM simulates material passing the ileocecal valve in humans. It contained the major non-digestible carbohydrates (pectin, xylan, arabinogalactan, amylopectin, starch) found in a normal western diet as well as protein (bactopepton, casein), ox-bile, Tween 80 as well as vitamins and minerals. SIEM was added to the system at a speed of 2.5 mL/h and the speed of the dialysis liquid was 1.5 mL/min. During the experiment, the intestinal contents were mixed continuously by the peristaltic movements of the TIM-2 system. In order to simulate the transit of the chime from proximal to distal colon, 25 mL of the lumen was removed every 24 h and discarded.\nBefore performing each experiment, the system was inoculated with a standardized microbiota of human origin. This standardized microbiota was prepared using fecal donations from a group of 4 healthy volunteers (3 females, 1 male, age 38.8 ± 3.9 years; BMI (body mass index) 24.2 ± 1.5 kg/m^2). Individuals provided signed informed consent before participation, were non-smokers and had not used antibiotics, prebiotics, probiotics or laxatives within 1 month before the stool donation.\nAt the start of the adaptation period the microbiota was allowed to adapt to the model conditions and SIEM for 16 h. After the adaptation period the 120 h test period started in which lactulose was added to TIM-2 once daily.\nLactulose was added to the system at daily doses of 2 g, 3 g, 4 g, and 5 g lactulose. Each dose as well as the control experiment was studied in duplicate (n = 2). The test period of the TIM-2 experiments lasted 120 h (5 consecutive days).\nMetabolites like the short-chain fatty acids (SCFA) and ammonia produced in TIM-2 were continuously removed from the lumen by a semipermeable membrane unit. This dialysate was collected at the start of the test period and after 24, 48, 72, 96, and 120 h.\nSamples for ammonia analysis were centrifuged as described above. Ammonia was determined based on the Berthelot reaction.", "data": [{"smiles": "OC[C@H]1O[C@@H](O[C@@H]2[C@@H](CO)OC(O)(CO)[C@H]2O)[C@H](O)[C@@H](O)[C@H]1O", "note": "(mixture of isomers) [Lactulose, lactulose]", "values": [{"measurement": "ammonia production (in words)", "value": "decreased the levels"}, {"measurement": "ammonia production (in words)", "setting": "listed as lactulose", "value": "decreased mean ammonia production"}, {"measurement": "Cumulative ammonia production", "setting": "lactulose 2 g daily, 0 h, control 0", "value": 0, "unit": "mmol"}, {"measurement": "Cumulative ammonia production", "setting": "lactulose 2 g daily, 24 h, control 10", "value": 9, "unit": "mmol"}, {"measurement": "Cumulative ammonia production", "setting": "lactulose 2 g daily, 48 h, control 31", "value": 29, "unit": "mmol"}, {"measurement": "Cumulative ammonia production", "setting": "lactulose 2 g daily, 72 h, control 55", "value": 48, "unit": "mmol"}, {"measurement": "Cumulative ammonia production", "setting": "lactulose 2 g daily, 96 h, control 82", "value": 68, "unit": "mmol"}, {"measurement": "Cumulative ammonia production", "setting": "lactulose 2 g daily, 120 h, control 108", "value": 88, "unit": "mmol"}, {"measurement": "Cumulative ammonia production", "setting": "lactulose 3 g daily, 0 h, control 0", "value": 0, "unit": "mmol"}, {"measurement": "Cumulative ammonia production", "setting": "lactulose 3 g daily, 24 h, control 10", "value": 9, "unit": "mmol"}, {"measurement": "Cumulative ammonia production", "setting": "lactulose 3 g daily, 48 h, control 31", "value": 26, "unit": "mmol"}, {"measurement": "Cumulative ammonia production", "setting": "lactulose 3 g daily, 72 h, control 55", "value": 45, "unit": "mmol"}, {"measurement": "Cumulative ammonia production", "setting": "lactulose 3 g daily, 96 h, control 82", "value": 64, "unit": "mmol"}, {"measurement": "Cumulative ammonia production", "setting": "lactulose 3 g daily, 120 h, control 108", "value": 85, "unit": "mmol"}, {"measurement": "Cumulative ammonia production", "setting": "lactulose 4 g daily, 0 h, control 0", "value": 0, "unit": "mmol"}, {"measurement": "Cumulative ammonia production", "setting": "lactulose 4 g daily, 24 h, control 10", "value": 6, "unit": "mmol"}, {"measurement": "Cumulative ammonia production", "setting": "lactulose 4 g daily, 48 h, control 31", "value": 15, "unit": "mmol"}, {"measurement": "Cumulative ammonia production", "setting": "lactulose 4 g daily, 72 h, control 55", "value": 25, "unit": "mmol"}, {"measurement": "Cumulative ammonia production", "setting": "lactulose 4 g daily, 96 h, control 82", "value": 38, "unit": "mmol"}, {"measurement": "Cumulative ammonia production", "setting": "lactulose 4 g daily, 120 h, control 108", "value": 51, "unit": "mmol"}, {"measurement": "Cumulative ammonia production", "setting": "lactulose 5 g daily, 0 h, control 0", "value": 0, "unit": "mmol"}, {"measurement": "Cumulative ammonia production", "setting": "lactulose 5 g daily, 24 h, control 10", "value": 5, "unit": "mmol"}, {"measurement": "Cumulative ammonia production", "setting": "lactulose 5 g daily, 48 h, control 31", "value": 12, "unit": "mmol"}, {"measurement": "Cumulative ammonia production", "setting": "lactulose 5 g daily, 72 h, control 55", "value": 22, "unit": "mmol"}, {"measurement": "Cumulative ammonia production", "setting": "lactulose 5 g daily, 96 h, control 82", "value": 32, "unit": "mmol"}, {"measurement": "Cumulative ammonia production", "setting": "lactulose 5 g daily, 120 h, control 108", "value": 41, "unit": "mmol"}]}]}
